Experimental data published in ChEMBL document CHEMBL4706515, “Discovery of new [1,2,4] Triazolo[1,5-a]Pyrimidine derivatives that Kill gastric cancer cells via the mitochondria pathway” (Eur J Med Chem, 2020).
Calls of active or inactive are those of the source. No cut-off for these calls is given here.

Columns and labels:
MGC-803 [1] = assay: Induction of apoptosis in human MGC-803 assessed by cleaved PARP levels incubated for 1 hr with Z-LEHD-FMK followed by compound addition measured by western blot assay; type: functional, cell-based
MGC-803 [2] = assay: Induction of apoptosis in human MGC-803 cells assessed as late apoptotic cells at 5 uM measure after 24 hrs by Annexin-PI staining based Flowcytometry method (reference value: 7.06%); type: functional
MGC-803 [3] = assay: Induction of apoptosis in human MGC-803 cells assessed as viable cells at 0.625 uM measure after 24 hrs by Annexin-PI staining based Flowcytometry method (reference value: 80%); type: functional; details: read-out: Activity
EJ = assay: Antiproliferative activity against human EJ cells assessed as inhibition of cell growth at measured after 72 hrs by SRB assay; type: functional
MGC-803 [4] = assay: Inhibition of cell proliferation in human MGC-803 cells at 10 uM measured by SRB assay; type: functional, cell-based; details: time 72.0 hrs
MGC-803 [5] = assay: Antiproliferative activity against human MGC-803 cells assessed as inhibition of cell growth at measured after 72 hrs by SRB assay; type: functional
MGC-803 [6] = assay: Induction of apoptosis in human MGC-803 cells assessed as viable cells at 1.25 uM measure after 24 hrs by Annexin-PI staining based Flowcytometry method (reference value: 80%); type: functional; details: read-out: Activity
SGC-7901 [7] = assay: Induction of apoptosis in human SGC-7901 cells assessed as viable cells at 5 uM measure after 24 hrs by Annexin-PI staining based Flowcytometry method (reference value: 94.9%); type: functional; details: read-out: Activity
MGC-803 [8] = assay: Induction of apoptosis in human MGC-803 cells assessed as late apoptotic cells at 1.25 uM measure after 24 hrs by Annexin-PI staining based Flowcytometry method (reference value: 7.06%); type: functional
SGC-7901 [9] = assay: Induction of apoptosis in human SGC-7901 cells assessed as late apoptotic cells at 1.25 uM measure after 24 hrs by Annexin-PI staining based Flowcytometry method (reference value: 1.29%); type: functional
A549 = assay: Antiproliferative activity against human A549 cells assessed as inhibition of cell growth at measured after 72 hrs by SRB assay; type: functional
MGC-803 [10] = assay: Induction of mitochondrial membrane potential loss in human MGC-803 cells at 2.5 uM measured after 24 hrs by JC-1 staining based flow cytometry method (reference value: 0.344%); details: Mitochondria

GI50 (MGC-803 [5]): 640 nM
GI50 (A549): > 10 µM
Activity (MGC-803 [10]): 3.25%
SMILES: Cc1cc(Nc2ccc(C(=O)/C=C/c3cccc(Br)n3)cc2)n2nc(SCc3nc4ccccc4[nH]3)nc2n1
Activity (MGC-803 [1]): inactive
Activity (MGC-803 [2]): 15.4%
viability at 0.625 µM (MGC-803 [3]): 91.6%
GI50 (EJ): > 10 µM
inhibition (MGC-803 [4]): Active
viability at 1.25 µM (MGC-803 [6]): 88.6%
viability at 5 µM (SGC-7901 [7]): 53%
Activity (MGC-803 [8]): 1.95%
Activity (SGC-7901 [9]): 1.37%
